Experimental data from patent US10506810B2, “Synergistic herbicidal composition” (QINGDAO KINGAGROOT RESISTANT WEED MANAGEMENT CO., LTD., priority 2015, dated 2019).
Where two headings read alike, the source gives them in different places.

Key:
Capsella bursa-pastoris = assay: pot-culture method, stem and leaf treatment in greenhouse, fresh weight inhibition rate 20 days after treatment (Gowing method); format: in vivo
Experimental: (§1) Capsella bursa-pastoris, Myosoton aquaticum, Alopecurus japonicus were collected from corn fields in Huangdao Experimental Base of Shandong Province.
(§2) The above weeds were cultivated by a pot culture method. […] Full and uniform weed seeds were selected, soaked in warm water at 25° C. for 6 hours, and germinated in a 28° C. biochemical incubator (darkness). […] A certain amount of water was added to the enamel pan regularly to keep the soil moist.
(§3) The technical materials were all dissolved in acetone, and diluted with an aqueous solution containing 0.1% emulsifier T-80. The dilution is performed as required.
(§4) A ratio of the active ingredient A to the active ingredient B and amounts thereof in each group depends on the characteristics and toxicity of the two agents, as well as the main application purpose of a corresponding formulation. Based on the pre-tests in this study, the dosage of the active ingredient A and the active ingredient B applied alone and in combination were shown in the tables, and a total 15 groups were designed. Water containing the solvent and emulsifier same with the above groups but free of the agents was used as a blank control.
(§5) 3 pots with 20 weed seeds per pot were treated in one treatment with […] per treatment, that is, a total of 60 weeds were treated in one treatment.
(§6) The agents were used for only once in the experiment. In the stage of weeds with 2 leaves and 1 core, the weeds were thinned out to maintain 15 weeds per pot and 45 weeds for each treatment, then continued to be cultured to 3-5-leaves stage of Capsella bursa-pastoris and Myosoton aquaticum, and 3-leaves and 1-core stage of Alopecurus japonicus, and treated.
(§7) The well-cultured weeds were evenly placed on a platform with an area of 0.5 m^2, and a solution of agents was sprayed on the stems and leaves thereof by the 3WP-2000-type walking spray tower at a dosage of 30 kg/ha and at a spray pressure of 0.3 MPa. After all the solution was sprayed, the valve was closed. After 30 seconds, the door of the spray tower was opened, and the nutritional bowl was taken out. Then the valve was opened, and the spray tube was cleaned by spraying 50 ml of water.
(§8) A pot-culture method was employed. For the cultivation of weeds, please refer to the Section 1.2, and “Pesticide guidelines for laboratory bioactivity tests—herbicides”. As to a method for applying agents, please refer to the section 2.3.2, that is, a method for treating stems and leaves was employed.
(§9) A method for investigating absolute number was employed, wherein whole seedlings of survival weeds were cut off with a blade along the soil surface, and the fresh weight of the weeds was weighed with an analytical balance. For dead weeds, the fresh weight thereof was zero.
(§10) The investigation was performed after 20 days of the treatment for only once.
(§11) Wherein, in the formula, X represented the fresh weight inhibition rate of the active ingredient A in a dosage of P, and Y represented the fresh weight inhibition rate of the active ingredient B in a dosage of Q.

Myosoton aquaticum = assay: as above; format: in vivo
Experimental: as §1, §2, §3, §4, §5, §6, §7, §8, §9, §10, §11

[1] = Capsella bursa-pastoris, 480 h, read-out: actual fresh weight inhibition rate
[2] = Myosoton aquaticum, 480 h, read-out: actual fresh weight inhibition rate

Cc1ccc(NC(=O)N(C)C)cc1Cl [chlorotoluron] showed a pest or weed control at 1500 g/ha (Capsella bursa-pastoris; Capsella bursa-pastoris, 480 h, dosage 1500 g/hm^2, read-out: actual fresh weight inhibition rate) of 33.5%, a pest or weed control at 2250 g/ha (Capsella bursa-pastoris; Capsella bursa-pastoris, 480 h, dosage 2250 g/hm^2, read-out: actual fresh weight inhibition rate) of 43.7% and a pest or weed control at 3000 g/ha (Capsella bursa-pastoris; Capsella bursa-pastoris, 480 h, dosage 3000 g/hm^2, read-out: actual fresh weight inhibition rate) of 57.3%. The pest or weed control at 1500 g/ha (Myosoton aquaticum; Myosoton aquaticum, 480 h, dosage 1500 g/hm^2, read-out: actual fresh weight inhibition rate) was 34.7%, the pest or weed control at 2250 g/ha (Myosoton aquaticum; Myosoton aquaticum, 480 h, dosage 2250 g/hm^2, read-out: actual fresh weight inhibition rate) was 43.8% and the pest or weed control at 3000 g/ha (Myosoton aquaticum; Myosoton aquaticum, 480 h, dosage 3000 g/hm^2, read-out: actual fresh weight inhibition rate) was 60.1%.

Molecule O=C(Nc1ccc(F)cc1F)c1cccnc1Oc1cccc(C(F)(F)F)c1 [diflufenican] has a pest or weed control at 40 g/ha (Capsella bursa-pastoris; 480 h, Capsella bursa-pastoris, 40 g/hm^2, read-out: actual fresh weight inhibition rate) of 33.1%, a pest or weed control at 80 g/ha (Capsella bursa-pastoris; 480 h, Capsella bursa-pastoris, 80 g/hm^2, read-out: actual fresh weight inhibition rate) of 48.2% and a pest or weed control at 120 g/ha (Capsella bursa-pastoris; 480 h, Capsella bursa-pastoris, 120 g/hm^2, read-out: actual fresh weight inhibition rate) of 63.4%. For the same molecule, the pest or weed control at 40 g/ha (Myosoton aquaticum; Myosoton aquaticum, 480 h, Myosoton aquaticum, 40 g/hm^2, read-out: actual fresh weight inhibition rate) was 24.1%, the pest or weed control at 80 g/ha (Myosoton aquaticum; Myosoton aquaticum, 480 h, Myosoton aquaticum, 80 g/hm^2, read-out: actual fresh weight inhibition rate) was 46.2% and the pest or weed control at 120 g/ha (Myosoton aquaticum; Myosoton aquaticum, 480 h, Myosoton aquaticum, 120 g/hm^2, read-out: actual fresh weight inhibition rate) was 66.5%.

CN(C)C(=O)SCCCCOc1ccccc1 [fenothiocarb] was tested, and the pest or weed control at 40 g/ha (Capsella bursa-pastoris; [1]) was 0%, the pest or weed control at 65 g/ha (Capsella bursa-pastoris; [1]) was 0% and the pest or weed control at 90 g/ha (Capsella bursa-pastoris; [1]) was 0%. For the same molecule, the pest or weed control at 40 g/ha (Myosoton aquaticum; [2]) was 70.3%, the pest or weed control at 65 g/ha (Myosoton aquaticum; [2]) was 84.5% and the pest or weed control at 90 g/ha (Myosoton aquaticum; [2]) was 97.3%.

In the case of COc1ncc(F)c2nc(S(=O)(=O)Nc3c(F)cccc3F)nn12 [florasulam], the “actual fresh weight inhibition rate” value (Capsella bursa-pastoris; Capsella bursa-pastoris, 2.5 g/hm^2) was 45.8%, the “actual fresh weight inhibition rate” value (Capsella bursa-pastoris; Capsella bursa-pastoris, 5 g/hm^2) was 60.4% and the “actual fresh weight inhibition rate” value (Myosoton aquaticum; Myosoton aquaticum, 2.5 g/hm^2) was 28.3%. The “actual fresh weight inhibition rate” value (Myosoton aquaticum; Myosoton aquaticum, 5 g/hm^2) was 41.9%.

With O=C(O)COC(=O)c1cc(Oc2ccc(C(F)(F)F)cc2Cl)ccc1[N+](=O)[O-] [fluoroglycofen, reference compound] the “actual fresh weight inhibition rate (%)” value (Capsella bursa-pastoris; dosage 5 g/hm^2) was 47.4%, the “actual fresh weight inhibition rate (%)” value (Capsella bursa-pastoris; dosage 10 g/hm^2) was 61.6% and the “actual fresh weight inhibition rate (%)” value (Capsella bursa-pastoris; dosage 15 g/hm^2) was 70.5%. The “actual fresh weight inhibition rate (%)” value (Myosoton aquaticum; dosage 5 g/hm^2) was 37.9%, the “actual fresh weight inhibition rate (%)” value (Myosoton aquaticum; dosage 10 g/hm^2) was 41.8% and the “actual fresh weight inhibition rate (%)” value (Myosoton aquaticum; dosage 15 g/hm^2) was 55.4%.

Nc1c(Cl)c(F)nc(OCC(=O)O)c1Cl [fluroxypyr, reference compound] was tested, and the “actual fresh weight inhibition rate (%)” value (Capsella bursa-pastoris; dosage 100 g/hm^2) was 10.1%, the “actual fresh weight inhibition rate (%)” value (Capsella bursa-pastoris; dosage 150 g/hm^2) was 18.3% and the “actual fresh weight inhibition rate (%)” value (Capsella bursa-pastoris; dosage 200 g/hm^2) was 28.7%. For the same molecule, the “actual fresh weight inhibition rate (%)” value (Myosoton aquaticum; dosage 100 g/hm^2) was 90.1%, the “actual fresh weight inhibition rate (%)” value (Myosoton aquaticum; dosage 150 g/hm^2) was 100% and the “actual fresh weight inhibition rate (%)” value (Myosoton aquaticum; dosage 200 g/hm^2) was 100%.

In the case of COC(=O)c1nc(-c2ccc(Cl)c(OC)c2F)cc(N)c1Cl [halauxifen-methyl, reference compound], the “actual fresh weight inhibition rate (%)” value (Capsella bursa-pastoris; dosage 5 g/hm^2) was 59.7%, the “actual fresh weight inhibition rate (%)” value (Capsella bursa-pastoris; dosage 10 g/hm^2) was 71.4% and the “actual fresh weight inhibition rate (%)” value (Myosoton aquaticum; dosage 5 g/hm^2) was 17.5%. The “actual fresh weight inhibition rate (%)” value (Myosoton aquaticum; dosage 10 g/hm^2) was 35.6%.

Work on COC(=O)c1c(Cl)nn(C)c1S(=O)(=O)NC(=O)Nc1nc(OC)cc(OC)n1 [halosulfuron-methyl] yielded a pest or weed control at 30 g/ha (Capsella bursa-pastoris; [1]) of 17.9%, a pest or weed control at 50 g/ha (Capsella bursa-pastoris; [1]) of 27.8% and a pest or weed control at 70 g/ha (Capsella bursa-pastoris; [1]) of 44.1%. For the same molecule, the pest or weed control at 30 g/ha (Myosoton aquaticum; [2]) was 14.5%, the pest or weed control at 50 g/ha (Myosoton aquaticum; [2]) was 34.9% and the pest or weed control at 70 g/ha (Myosoton aquaticum; [2]) was 50.5%.

Molecule CC(C)c1ccc(NC(=O)N(C)C)cc1 [isoproturon] has a pest or weed control at 300 g/ha (Capsella bursa-pastoris; 480 h, Capsella bursa-pastoris, 300 g/hm^2, read-out: actual fresh weight inhibition rate) of 21.7%, a pest or weed control at 750 g/ha (Capsella bursa-pastoris; 480 h, Capsella bursa-pastoris, 750 g/hm^2, read-out: actual fresh weight inhibition rate) of 33.7% and a pest or weed control at 1200 g/ha (Capsella bursa-pastoris; 480 h, Capsella bursa-pastoris, 1200 g/hm^2, read-out: actual fresh weight inhibition rate) of 57.2%. The pest or weed control at 300 g/ha (Myosoton aquaticum; Myosoton aquaticum, 480 h, Myosoton aquaticum, 300 g/hm^2, read-out: actual fresh weight inhibition rate) was 19.4%, the pest or weed control at 750 g/ha (Myosoton aquaticum; Myosoton aquaticum, 480 h, Myosoton aquaticum, 750 g/hm^2, read-out: actual fresh weight inhibition rate) was 26.4% and the pest or weed control at 1200 g/ha (Myosoton aquaticum; Myosoton aquaticum, 480 h, Myosoton aquaticum, 1200 g/hm^2, read-out: actual fresh weight inhibition rate) was 47.5%.
